{"source": "paper PMC7473964", "about": "“Application of Pharmacokinetic-Pharmacodynamic Modeling to Inform Translation of In Vitro NaV1.7 Inhibition to In Vivo Pharmacological Response in Non-human Primate” (Pharmaceutical Research, 2020)", "origin": "cited, not measured here", "tested_on": "sense of smell (hyposmia) as biomarker of on-target NaV1.7 pharmacology", "set-up": "method as in PMID 31172446", "settings": "healthy volunteers, first-in-human study"}
{"compound": "O=C(NS(=O)(=O)N1CCC1)c1cc(C2CC2)c(OCC23CC4CC(CC(C4)C2)C3)cc1F", "note": "[GDC-0276]", "values": [{"measurement": "Hyposmia in clinical study", "result": "a couple of incidents of hyposmia were reported"}]}
